The results in this text go back to patent publication US20080045594A1, “Use of at Least One Conjugated Triene-Containing Fatty Acid for Preparing a Medicine for Treating Inflammation” (LABORATOIRES EXPANSCIENCE, priority 2004, published 2008).

This test deals with Normal human adipocytes. As to the kind of experiment: lipid synthesis in suspended adipocytes (incorporation of radio-labelled acetate). It counts as cell-based. Conditions: 10 μM; reference molecule, inhibitor of FAS. As for the experimental part:
Normal human adipocytes were isolated from abdominal biopsies (plastic surgery). Immediately after receipt, the samples were incubated for 30 min at 37° C. in the presence of collagenase (Sigma). The suspension of adipocytes is then rinsed and diluted 3 times in the culture medium.
Culture medium: bicarbonate (Life Technologies) 1.87 mg/ml, penicillin/streptomycin (Life Technologies) 25 IU/ml/25 μg/ml, glutamine (Life Technologies) 2 mM, MEM (Merck Eurolab) 100% v/v, albumin of bovine origin (Sigma) 0.5% w/v.
The suspended adipocytes are incubated for 1 h at 37° C. in the presence of different concentrations of MA105 (20 and 2 ppm) diluted in THF (tetrahydrofurane). A […] volume of radio-labelled acetate (2-C^14, 60.87 μCi/ml, Amersham) is then added to the preparation. After 4 hrs of incubation, the lipids are extracted according to the procedure described by Bligh and Dyer (methanol/chloroform/water), evaporated under nitrogen and the incorporated radioactivity was quantitated by liquid scintillation (LKB 1210 Rackbeta).

SMILES strings stand for the structures.

For the compound `C/C=C/C/C=C/CCC(=O)[C@H]1O[C@H]1C(N)=O` [ceruline], the “inhibition of the incorporation of acetate” value was found to be 75 % inhibition/control.
